According to patent EP2862575B1, “APPLICATION OF PICEATANNOL-3'-O-B-D-GLUCOPYRANOSIDE IN PREPARATION OF MEDICAMENTS FOR IMPROVING MICROCIRCULATION BLOCK” (KPC Pharmaceuticals, Inc., priority 2012, dated 2013):

What was measured:
mice = assay: acute and long-term toxicity tests in mice; assay type: in vivo; conditions: administrated in a range of safe dose
mouse = assay: acute toxicity test, gastric gavage, mouse; conditions: within 24 h
[1] = solubility test (excess compound shaken to equilibrium, UV at 319 nm); assay type: physicochemical; conditions: 25±1°C, 72 h
Protocol: A series of solutions of gastrodin or hydroxypropyl-β-cyclodextrin or a mixture of gastrodin and hydroxypropyl-β-cyclodextrin were prepared in volumetric flasks according to the concentrations specified in the tables below. Excessive piceatannol-3'-o-β-d-glucopyranoside was added to the solutions prepared above, which were then shaken at 25±1°C in a thermostatic water bath continuously for 72 h until equilibrium was reached. The solutions were precisely taken out and filtered through a 0.45µm filter. The filtered solutions were diluted to prepare test solutions containing 6µg piceatannol-3'-o-β-d-glucopyranoside per milliliter. Appropriate amount of control sample was precisely weighed out, dissolved in water and diluted to prepare a control solution. The absorbance values of both types of solutions were measured at 319 nm using UV spectrophotometry, from which the solubility can be calculated. The test results of solubility can be seen in the tables below: […]

beagle dog = assay: acute toxicity test, gastric gavage, beagle dog; conditions: within 24 h
human = assay: maximum tolerated dose for human calculated from animal doses; assay type: in vivo; conditions: calculated on the basis of a body weight of 60 kg from maximum tolerated dose of intramuscular and intravenous injection for animals

Compound | toxic effect (mice) | single maximum dosage given by gastric gavage (mouse) [g/kg.bw] | Solubility of piceatannol-3'-o-β-d-glucopyranoside ([1]; Gastrodin 45 % + Hydroxypropyl-β-cyclodextrin 3 %) [mg/mL] | Solubility of piceatannol-3'-o-β-d-glucopyranoside ([1]; Gastrodin 50 % + Hydroxypropyl-β-cyclodextrin 3 %) [mg/mL] | Solubility of piceatannol-3'-o-β-d-glucopyranoside ([1]; Hydroxypropyl-β-cyclodextrin 45 %) [mg/mL] | Solubility of piceatannol-3'-o-β-d-glucopyranoside ([1]; Hydroxypropyl-β-cyclodextrin 50 %) [mg/mL] | chromosome aberration or mutagenesis (genotoxicity test) | single maximum dosage given by gastric gavage (beagle dog) [g/kg.bw] | maximum tolerated dose for human (human) [g]
OC[C@H]1O[C@@H](Oc2cc(/C=C/c3cc(O)cc(O)c3)ccc2O)[C@H](O)[C@@H](O)[C@@H]1O [piceatannol-3'-o-β-d-glucopyranoside] | no toxic effect observed | 13.33 | 186.789 | 188.029 | 180.509 | 183.10 | no chromosome aberration or mutagenesis observed | 5 | –
OCc1ccc(O[C@@H]2O[C@H](CO)[C@@H](O)[C@H](O)[C@H]2O)cc1 [Gastrodin, 4-hydroxymethylphenyl-β-D-glucopyranoside hemihydrate] | – | – | – | – | – | – | – | – | 33.249
